# Measured values taken from ChEMBL document CHEMBL1201862, “PubChem BioAssay data set” (2004).
# Values joined by “and” are separate entries in the source; they are usually repeats but may differ in a detail not shown here. Equal entries are not always repeated.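 Briefly, cells in 96-well plates were exposed to five compound concentrations for 48 h, and endpoints were estimated by linear interpolation. The concentration for 50% growth inhibition is given as GI50.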 Active and inactive are the calls of the source. Cut-off read from the data, not from the text of the source: active = GI50 up to about 1.1 µM and inactive = higher. Where a SMILES comes first, the peptide text is derived from it. [ ]: non-standard residue; d: D form. The star is where a group is joined. Phe(4-NO2) = N[CH](Cc1ccc([N+](=O)[O-])cc1)C(=O)O; Boc = CC(C)(C)OC(=O)*; OtBu = CC(C)(C)O*
# Experiments:
# Assay in all cases: inhibition of tumour cell growth, NCI panel, 48 h
# DMS-114 = test system: DMS-114
# BT-549 = test system: BT-549
# LXFL 529 = test system: LXFL 529
# DLD-1 = test system: DLD-1
# M19-MEL = test system: M19-MEL
# HOP-18 = test system: HOP-18
# XF498 = test system: XF498
# DMS-273 = test system: DMS-273
# RXF 631 = test system: RXF 631
Compound,GI50 (DMS-114),GI50 (BT-549),GI50 (LXFL 529),GI50 (DLD-1),GI50 (M19-MEL),GI50 (DMS-273),also measured
Cc1c(Cl)cccc1NC(=O)CC1Sc2ccccc2NC1=O (centres undefined),27.3 µM (inactive) and 18.5 µM (inactive),27 µM (inactive),45.5 µM (inactive) and 30.1 µM (inactive),35 µM (inactive) and 24.1 µM (inactive),46.9 µM (inactive) and 32 µM (inactive),,GI50 (HOP-18): 13.2 µM (inactive) and 15.1 µM (inactive); GI50 (XF498): 22.9 µM (inactive) and 22.8 µM (inactive)
C=CC(=O)N1C/C(=C\c2ccccc2)C(=O)/C(=C/c2ccccc2)C1,1.01 µM (active),1.71 µM (inactive),1.33 µM (inactive),0.458 µM (active),0.979 µM (active),0.668 µM (active),GI50 (HOP-18): 3.24 µM (inactive); GI50 (XF498): 1.7 µM (inactive)
Nc1ccccc1.O=P(O)(OP(=O)(O)c1ccccc1)c1ccccc1,,> 100 µM (inactive),,,,,
CC(=O)OCCN1c2ccccc2Sc2cnccc21,,> 10 µM (inactive),,,,,
O=C(c1no[n+]([O-])c1C(=O)c1csc2ccccc12)c1csc2ccccc12,,6.55 µM (inactive),,,,,
O=[N+]([O-])c1c(/C=N/Nc2ccccc2)oc(-c2ccc3c(c2)OCO3)c1-c1ccc2c(c1)OCO2,5.02 µM (inactive),,0.746 µM (active),5.73 µM (inactive),13.8 µM (inactive),,GI50 (RXF 631): 65.8 µM (inactive); GI50 (XF498): 2.89 µM (inactive)
COc1ccc(CNc2cnc3cc(N)ccc3n2)cc1,> 100 µM (inactive),,> 100 µM (inactive),,> 100 µM (inactive),> 100 µM (inactive),GI50 (XF498): > 100 µM (inactive)
CC(=O)N1C(C(=O)NNc2ccccc2)CSC1c1ccccc1 (centres undefined),,> 100 µM (inactive),,,,,
COC(=O)CCC1(O)C=CC(=O)C=C1,,58.5 µM (inactive),,,,,
CC1=NN(c2nc(N)nc(CBr)n2)C(C)(C)C1,,11.8 µM (inactive),,,,,
CCC(=O)C(C(C)/C=C/CCSc1ccccc1)C(O)CCCCCC(=O)OC (centres undefined),,> 100 µM (inactive),,,,,
COc1ccc2c(c1)-c1nc(=S)n(CCCN(C)C)c3ccc([N+](=O)[O-])c(c13)N2,,7.21 µM (inactive),,,,,
O=C(/C=C/c1ccccc1Cl)c1ccccc1Cl,19.9 µM (inactive),,17.2 µM (inactive),17.5 µM (inactive),25.8 µM (inactive),16.9 µM (inactive),GI50 (HOP-18): 28.1 µM (inactive)
CC(C)(CN)SCc1ccccc1,,> 100 µM (inactive),,,,,
Cc1ccc(C(=O)N/N=C(\N=N\c2ccccc2)c2ccc(N(C)C)cc2)cc1,,> 100 µM (inactive),,,,,
NC1=C(NC(=O)Cc2ccc(F)cc2)C(=O)c2ccccc2C1=O,16 µM (inactive),,> 100 µM (inactive),> 33.3 µM (inactive),9.73 µM (inactive),33.1 µM (inactive),GI50 (RXF 631): > 60.4 µM (inactive); GI50 (XF498): > 78.7 µM (inactive)
COC(=O)C1Cc2c([nH]c3ccccc23)C(c2ccccc2O)N1 (centres undefined),58.1 µM (inactive),,62.7 µM (inactive),42.9 µM (inactive),,60.4 µM (inactive),GI50 (HOP-18): > 100 µM (inactive)
O=C(CC(C(=O)c1cccs1)c1ccsc1)c1ccsc1 (centres undefined),,28.3 µM (inactive),,,,,
CCOC(=O)c1c(N2CCOCC2)ncn(-c2cccc(Cl)c2)c1=O,,> 100 µM (inactive),,,,,
O=c1c2cc(S(=O)(=O)Nc3ccccc3Cl)ccc2ncn1NS(=O)(=O)c1ccc(Br)cc1,,> 37.5 µM (inactive),,,,,

Compound,GI50 (DMS-114),GI50 (BT-549),GI50 (LXFL 529),GI50 (DLD-1),GI50 (M19-MEL),GI50 (DMS-273),also measured
Nc1ncnc2c1ncn2CC(O)C(=O)O (centres undefined),> 100 µM (inactive),> 100 µM (inactive),> 100 µM (inactive),> 100 µM (inactive),> 100 µM (inactive),> 100 µM (inactive),GI50 (HOP-18): 71 µM (inactive)
COc1cccc(C2CC(C)(N3CCCC3)Oc3cc4c(cc32)OCO4)c1O (centres undefined),,16.9 µM (inactive),,,,,
CC[C@@H]1C[C@@H](O)[C@@H]2[C@H](O)[C@H](O)CN2C1,,> 100 µM (inactive),,,,,
O=C(/C=C1\Nc2ccccc2C(=O)N1c1ccc(Cl)cc1)c1ccncc1,> 100 µM (inactive),,> 100 µM (inactive),> 100 µM (inactive),> 100 µM (inactive),,GI50 (XF498): 30.1 µM (inactive)
O=C(c1ccccc1)C1CCCCN1C(=O)c1ccccc1 (centres undefined),> 100 µM (inactive),,> 100 µM (inactive),> 100 µM (inactive),> 100 µM (inactive),> 100 µM (inactive),GI50 (HOP-18): > 100 µM (inactive)
Cc1ccc(S(=O)(=O)ON=C2CC(c3ccccc3)N(C)C(c3ccccc3)C2)cc1 (centres undefined),14.7 µM (inactive),,15.6 µM (inactive) and 16.6 µM (inactive),,20.8 µM (inactive) and 21.7 µM (inactive),20.7 µM (inactive) and 19.5 µM (inactive),
Clc1ccc(C2=CC(c3ccccc3)N3C(=N[C@H]4CCCC[C@@H]43)N2)cc1 (some centres undefined),,9.12 µM (inactive),,,,,
CC[C@@]12N=C(N(C)C)C[C@]1(O)ON=C2C,> 100 µM (inactive),,> 100 µM (inactive),> 100 µM (inactive),> 100 µM (inactive),> 100 µM (inactive),GI50 (HOP-18): > 100 µM (inactive); GI50 (XF498): > 100 µM (inactive)
N=C(N)C1CN(CC=O)C(=O)NC1=O (centres undefined),,> 100 µM (inactive),,,,,
Cn1c(O)c(C(=O)Nc2ccc([N+](=O)[O-])cc2)c(=O)n(C)c1=S,2.27 µM (inactive),1.17 µM (inactive),3.3 µM (inactive),3.7 µM (inactive),3.69 µM (inactive),,GI50 (HOP-18): 2.84 µM (inactive)
CN(C)c1ccc(C2CC(c3ccc4ccccc4c3O)=NN2c2ccc([N+](=O)[O-])cc2[N+](=O)[O-])cc1 (centres undefined),,91 µM (inactive),,,,,
O=C(O)c1ccc(C2=Cc3cc(Cl)ccc3OC2)cc1,> 100 µM (inactive),,> 100 µM (inactive),> 100 µM (inactive),> 100 µM (inactive),> 100 µM (inactive),GI50 (HOP-18): 55.1 µM (inactive); GI50 (XF498): > 100 µM (inactive)
CN(C)CCOc1cccc2c1C(=O)c1ccccc1C2=O,10.4 µM (inactive),,12.1 µM (inactive),8.34 µM (inactive),5.65 µM (inactive),10.1 µM (inactive),GI50 (HOP-18): 16 µM (inactive); GI50 (XF498): 18.7 µM (inactive)
S=C(Nc1ccc(/N=N/c2ccccc2)cc1)SCc1ccccc1,,18.3 µM (inactive),,,,,
CC(C)(C)c1cc(C(=O)O)c2c(c1)C(=O)OC2(c1ccccc1)c1ccccc1C(=O)O (centres undefined),> 100 µM (inactive),,> 100 µM (inactive),> 100 µM (inactive),> 100 µM (inactive),> 100 µM (inactive),GI50 (HOP-18): > 100 µM (inactive); GI50 (XF498): > 100 µM (inactive)
O=C1c2ccccc2N2OC3C4CCC(C4)C3C12c1ccccc1 (centres undefined),62.5 µM (inactive),,73.8 µM (inactive),18.3 µM (inactive),93.1 µM (inactive),39.6 µM (inactive),GI50 (HOP-18): > 100 µM (inactive)
Cc1nc2ccccc2c(=O)n1/N=C(\N=N\c1ccccc1Cl)c1ccccc1,15.5 µM (inactive),,,29.1 µM (inactive),25.8 µM (inactive),31.6 µM (inactive),GI50 (HOP-18): 27.5 µM (inactive); GI50 (XF498): 21.1 µM (inactive)
CC(C)(C)OC(=O)N1N=NC2C3OC(CC3=O)C21 (centres undefined),> 100 µM (inactive),,> 100 µM (inactive),> 100 µM (inactive),,> 100 µM (inactive),GI50 (RXF 631): > 100 µM (inactive); GI50 (HOP-18): > 100 µM (inactive)
Cc1cn(S(=O)(=O)c2ccccc2)c2c(OCc3ccccc3)cc(NS(C)(=O)=O)cc12,,27.6 µM (inactive),,,,,
COC(=O)C1=C(C(=O)NNc2ccccc2)N(c2cccnc2Cl)C(c2ccccc2)=CC1c1ccccc1 (centres undefined),,56.8 µM (inactive),,,,,

Compound,GI50 (DMS-114),GI50 (BT-549),GI50 (LXFL 529),GI50 (DLD-1),GI50 (M19-MEL),GI50 (DMS-273),also measured
CC(=O)OCC1OC(N2C(=O)CC(N)=Nc3ccccc32)C(OC(C)=O)C(OC(C)=O)C1OC(C)=O (centres undefined),,66.2 µM (inactive),,,,,
CCN(CC)CCCNc1nncc2cc3c([nH]c4ccc(OC)cc43)c(C)c12,,16.3 µM (inactive),,,,,
O=C1C2C=CC(C2)C(c2ccc(O)cc2)N1O (centres undefined),,,> 100 µM (inactive),> 100 µM (inactive),> 100 µM (inactive),,GI50 (XF498): > 100 µM (inactive)
O=C(Nc1ccc(Cl)cc1Cl)c1cc2nc3ccccc3c(=O)n2c2ccccc12,,> 10 µM (inactive),,,,,
O=C(O)c1ccc(OCc2nc3cc(C(F)(F)F)ccc3nc2-c2ccccc2)cc1,,75.3 µM (inactive),,,,,
C=CCc1ccccc1CC1(OCC)OC(=O)c2ccccc21 (centres undefined),,96.8 µM (inactive),,,,,
NC(=S)NS(=O)(=O)c1ccc(F)cc1F,,> 100 µM (inactive),,,,,
CN1Cc2ccccc2/C=C\c2ccccc21,,70 µM (inactive),,,,,
CN1C(=O)CC2CCC(=O)N2c2cccnc21 (centres undefined),,> 100 µM (inactive),,,,,
Cc1n[nH]c(=O)n1C1CCCC1,,> 100 µM (inactive),,,,,
COC(=O)[C@@]12C3=NO[C@]1(C(=O)OC)C(O[Si](C)(C)C(C)(C)C)[C@H]1OC(C)(C)O[C@H]1[C@@H]2C(OCc1ccccc1)CC3 (some centres undefined),36.6 µM (inactive),,60 µM (inactive),85.1 µM (inactive),71.8 µM (inactive),52 µM (inactive),GI50 (HOP-18): > 100 µM (inactive)
CC(=O)C1C(=O)C(=O)N(c2cccc([N+](=O)[O-])c2)C1=O (centres undefined),,> 100 µM (inactive),,,,,
O=c1cc(C(F)(F)F)c2cc3c(cc2o1)NCCC3,,> 100 µM (inactive),,,,,
Cc1[nH]n(-c2ccc(S(=O)(=O)O)cc2)c(=O)c1/N=N/c1ccccc1,,> 100 µM (inactive),,,,,
CC(C)(C)OC(=O)Nc1nnc(S(N)(=O)=O)s1,,> 100 µM (inactive),,,,,
C[N+]1(CCC[N+]2(C)CC3C4C=CC(CC4)C3C2)CCOCC1 (centres undefined),,> 100 µM (inactive),,,,,
CC(=O)Oc1ccc(/C=C/C(=O)NCCOC(=O)/C=C/c2ccc(OC(C)=O)c(OC(C)=O)c2)cc1OC(C)=O,,38.7 µM (inactive),,,,,
Cn1cnc([N+](=O)[O-])c1Sc1nc2ccccc2s1,3.9 µM (inactive),,10.5 µM (inactive),5.07 µM (inactive),11.5 µM (inactive),1.36 µM (inactive),GI50 (RXF 631): 4.84 µM (inactive); GI50 (HOP-18): 0.286 µM (active)
COC(=O)C(Cc1ccc([N+](=O)[O-])cc1)NC(=O)C(CC(=O)OC(C)(C)C)NC(=O)OC(C)(C)C (centres undefined) (Boc-Asp(OtBu)-[Phe(4-NO2)]-OMe; configuration not given here),,> 100 µM (inactive),,,,,
CCCCCCCCCCCCCC(=O)O[C@H]1CC[C@H](NC(=O)[C@H](OC)[C@H](O)[C@@H](O)[C@H](O)/C=C/C(C)C)C(=O)NC1 [BENGAMIDE A],0.00512 µM (active),0.953 µM (active),0.00386 µM (active),,0.0033 µM (active),0.00512 µM (active),GI50 (HOP-18): > 10 µM (inactive); GI50 (XF498): 0.0147 µM (active)
